# Reference: patent US8148367B2 (Takeda Pharmaceutical Company Limited, priority 2008, dated 2012)
# Target: T1, Recombinant human renin (Homo sapiens, UniProt P00797)
# T1 construct: isolate the active form (residues 67-406); made in house; host or cells: FreeStyle 293-F cells, transient expression of pcDNA3.1(+)/hREN
# T1 sequence (P00797 67-406): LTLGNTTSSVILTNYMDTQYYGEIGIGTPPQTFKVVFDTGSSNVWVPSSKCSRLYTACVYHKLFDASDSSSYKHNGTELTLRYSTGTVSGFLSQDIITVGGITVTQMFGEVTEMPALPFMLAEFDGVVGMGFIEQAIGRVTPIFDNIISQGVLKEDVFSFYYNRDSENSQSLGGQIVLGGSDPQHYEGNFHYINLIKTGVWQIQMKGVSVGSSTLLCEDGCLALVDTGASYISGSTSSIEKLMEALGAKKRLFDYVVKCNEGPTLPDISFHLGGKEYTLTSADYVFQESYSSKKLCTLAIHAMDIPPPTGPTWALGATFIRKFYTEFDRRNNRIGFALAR
# Experiment: In vitro enzymatic activity assay of renin inhibitors (fluorescence, QXL520/HiLyteFluo488 peptide substrate)
# Assay type: biochemical
# Conditions: recombinant human renin 3 nM, 1 μM substrate, pre-incubated 10 minutes at 37° C., incubation one hour, pH 7.4, 5% DMSO; read-out: IC50 of Exemplified Compounds Against Renin
row,SMILES,IC50 [nM]
1,"O=C(c1[nH]c(=O)n(-c2ccccc2NS(=O)(=O)c2ccccc2)c1-c1ccccc1)N1CCNC[C@H]1Cc1ccccc1 [Example 125, (R)—N-(2-(4-(2-benzylpiperazine-1-carbonyl)-2-oxo-5-phenyl-2,3-dihydro-1H-imidazol-1-yl)phenyl)Benzenesulfonamide]",< 100
2,"Cc1ccccc1-n1c(-c2ccccc2)c(C(=O)N2CCNCC2)n(CCCNS(=O)(=O)c2ccc(Cl)cc2)c1=O [Example 219, 4-Chloro-N-(3-(2-oxo-4-phenyl-5-(piperazine-1-carbonyl)-3-o-tolyl-2,3-dihydro-1H-imidazol-1-yl)propyl)benzenesulfonamide]",100 to 500
3,"O=C(c1c(-c2ccccc2)n(-c2ccccc2)c(=O)n1Cc1cccc2cccnc12)N1CCNCC1 [Example 82, 1,5-Diphenyl-4-(piperazine-1-carbonyl)-3-(quinolin-8-ylmethyl)-1H-imidazol-2(3H)-one]",> 1000
4,"Cc1ccccc1S(=O)(=O)NCCCn1c(C(=O)N2CCNCC2)c(-c2ccccc2)n(-c2cccc(N3CCOCC3)c2)c1=O [Example 197, 2-Methyl-N-(3-(3-(3-morpholinophenyl)-2-oxo-4-phenyl-5-(piperazine-1-carbonyl)-2,3-dihydro-1H-imidazol-1-yl)propyl)benzenesulfonamide]",> 1000
5,"C=CCn1c(C(=O)N2CCNCC2)c(-c2ccccc2)n(-c2ccccc2OC)c1=O [Example 145, 1-Allyl-3-(2-methoxyphenyl)-4-phenyl-5-(piperazine-1-carbonyl)-1H-imidazol-2(3H)-one]",> 1000
6,"CC(C)CN(C)C(=O)c1cccc(Cn2c(C(=O)N3CCNCC3)c(-c3ccccc3)n(-c3cccc(N4CCOCC4)c3)c2=O)c1 [Example 78, N-isobutyl-N-methyl-3-((3-(3-morpholinophenyl)-2-oxo-4-phenyl-5-(piperazine-1-carbonyl)-2,3-dihydro-1H-imidazol-1-yl)methyl)benzamide]",> 1000
7,"N#Cc1ccccc1Cn1c(C(=O)N2CCNCC2)c(-c2ccccc2)n(-c2ccccc2)c1=O [Example 85, 2-((2-Oxo-3,4-diphenyl-5-(piperazine-1-carbonyl)-2,3-dihydro-1H-imidazol-1-yl)methyl)benzonitrile]",> 1000
8,"COCCOc1cccc(Cn2c(C(=O)N3CCNCC3)c(-c3ccccc3)n(-c3ccccc3OC)c2=O)c1 [Example 187, 1-(3-(2-Methoxyethoxy)benzyl)-3-(2-methoxyphenyl)-4-phenyl-5-(piperazine-1-carbonyl)-1H-imidazol-2(3H)-one]",> 1000
9,"Cc1ccccc1-n1c(-c2ccccc2)c(C(=O)N2CCNCC2)n(CCNS(=O)(=O)c2cccc(Cl)c2)c1=O [Example 205, 3-Chloro-N-(2-(2-oxo-4-phenyl-5-(piperazine-1-carbonyl)-3-o-tolyl-2,3-dihydro-1H-imidazol-1-yl)ethyl)benzenesulfonamide]",> 1000
10,"O=C(c1c(-c2ccccc2)n(-c2cccc(N3CCOCC3)c2)c(=O)n1CC1CCCCC1)N1CCNCC1 [Example 189, 1-(Cyclohexylmethyl)-3-(3-morpholinophenyl)-4-phenyl-5-(piperazine-1-carbonyl)-1H-imidazol-2(3H)-one]",> 1000
11,"Cc1ccccc1-n1c(-c2ccccc2)c(C(=O)N2CCNCC2)n(CCCNC(=O)Nc2ccccc2)c1=O [Example 223, 1-(3-(2-Oxo-4-phenyl-5-(piperazine-1-carbonyl)-3-o-tolyl-2,3-dihydro-1H-imidazol-1-yl)propyl)-3-phenylurea]",500 to 1000
12,"COCCCOc1cccc(-n2c(-c3ccccc3)c(C(=O)N3CCNCC3)n(Cc3cccc(OCCOC)c3)c2=O)c1 [Example 192, 1-(3-(2-Methoxyethoxy)benzyl)-3-(3-(3-methoxypropoxy)phenyl)-4-phenyl-5-(piperazine-1-carbonyl)-1H-imidazol-2(3H)-one]",> 1000
13,"CN1CCOc2ccc(-n3c(-c4ccccc4)c(C(=O)N4CCNC[C@H]4Cc4ccccc4)[nH]c3=O)cc21 [Example 135, (R)-4-(2-Benzylpiperazine-1-carbonyl)-1-(4-methyl-3,4-dihydro-2H-benzo[b][1,4]oxazin-6-yl)-5-phenyl-1H-imidazol-2(3H)-one]",< 100
14,"Cc1ccccc1-n1c(-c2ccccc2)c(C(=O)N2CCNCC2)n(CCCNC(=O)CC(C)C)c1=O [Example 165, 3-Methyl-N-(3-(2-oxo-4-phenyl-5-(piperazine-1-carbonyl)-3-o-tolyl-2,3-dihydro-1H-imidazol-1-yl)propyl)butanamide]",> 1000
15,"CC(=O)N1CCCC(n2c(-c3ccccc3)c(C(=O)N3CCNCC3)n(Cc3ccccc3)c2=O)C1 (stereo not shown) [Example 93, 1-(1-Acetylpiperidin-3-yl)-3-benzyl-5-phenyl-4-(piperazine-1-carbonyl)-1H-imidazol-2(3H)-one]",> 1000
16,"C=CCn1c(C(=O)N2CCNCC2)c(-c2ccccc2)n(C2CCCCC2)c1=O [Example 62, 1-Allyl-3-cyclohexyl-4-phenyl-5-(piperazine-1-carbonyl)-1H-imidazol-2(3H)-one]",> 1000

row,SMILES,IC50 [nM]
1,"CC(C)c1c(C(=O)N2CCNCC2)[nH]c(=O)n1-c1ccccc1 [Example 23, 5-Isopropyl-1-phenyl-4-(piperazine-1-carbonyl)-1H-imidazol-2(3H)-one]",> 1000
2,"COCCCOc1ccccc1-n1c(-c2ccccc2)c(C(=O)N2CCNCC2)[nH]c1=O [Example 33, 1-(2-(3-Methoxypropoxy)phenyl)-5-phenyl-4-(piperazine-1-carbonyl)-1H-imidazol-2(3H)-one]",> 1000
3,"O=C(NC[C@@H]1CNCCN1C(=O)c1[nH]c(=O)n([C@@H]2CCCC[C@H]2O)c1-c1ccccc1)c1ccccc1 [Example 107, N—(((S)-1-(1-((1R,2R)-2-Hydroxycyclohexyl)-2-oxo-5-phenyl-2,3-dihydro-1H-imidazole-4-carbonyl)piperazin-2-yl)methyl)benzamide]",500 to 1000
4,"Cc1ccccc1-n1c(-c2ccccc2)c(C(=O)N2CCNCC2)n(Cc2cccc(OCCOc3ccccc3)c2)c1=O [Example 149, 1-(3-(2-Phenoxyethoxy)benzyl)-4-phenyl-5-(piperazine-1-carbonyl)-3-o-tolyl-1H-imidazol-2(3H)-one]",100 to 500
5,"COCCCOc1cccc(-n2c(-c3ccccc3)c(C(=O)N3CCNCC3)n(CCCNC(=O)c3ccccc3)c2=O)c1 [Example 179, N-(3-(3-(3-(3-Methoxypropoxy)phenyl)-2-oxo-4-phenyl-5-(piperazine-1-carbonyl)-2,3-dihydro-1H-imidazol-1-yl)propyl)benzamide]",500 to 1000
6,"COC(=O)NCCCn1c(C(=O)N2CCNCC2)c(-c2ccccc2)n(-c2ccccc2C)c1=O [Example 253, Methyl 3-(2-oxo-4-phenyl-5-(piperazine-1-carbonyl)-3-o-tolyl-2,3-dihydro-1H-imidazol-1-yl)propylcarbamate]",> 1000
7,"COc1ccccc1C(=O)NCCn1c(C(=O)N2CCNCC2)c(-c2ccccc2)n(-c2ccccc2C)c1=O [Example 234, 2-Methoxy-N-(2-(2-oxo-4-phenyl-5-(piperazine-1-carbonyl)-3-o-tolyl-2,3-dihydro-1H-imidazol-1-yl)ethyl)benzamide]",500 to 1000
8,"COc1ccc(NC(=O)NCCn2c(C(=O)N3CCNCC3)c(-c3ccccc3)n(-c3ccccc3C)c2=O)cc1 [Example 228, 1-(4-Methoxyphenyl)-3-(2-(2-oxo-4-phenyl-5-(piperazine-1-carbonyl)-3-o-tolyl-2,3-dihydro-1H-imidazol-1-yl)ethyl)urea]",500 to 1000
9,"CC(=O)Nc1ccccc1-n1c(-c2ccccc2)c(C(=O)N2CCNC[C@H]2Cc2ccccc2)[nH]c1=O [Example 122, (R)—N-(2-(4-(2-Benzylpiperazine-1-carbonyl)-2-oxo-5-phenyl-2,3-dihydro-1H-imidazol-1-yl)phenyl)acetamide]",< 100
10,"N#Cc1cccc(Cn2c(C(=O)N3CCNCC3)c(-c3ccccc3)n(-c3ccccc3)c2=O)c1 [Example 79, 3-((2-oxo-3,4-diphenyl-5-(piperazine-1-carbonyl)-2,3-dihydro-1H-imidazol-1-yl)methyl)benzonitrile]",500 to 1000
11,"Cc1ccccc1-n1c(-c2ccccc2)c(C(=O)N2CCNCC2)n(CCNC(=O)c2ccccc2)c1=O [Example 166, N-(2-(2-oxo-4-Phenyl-5-(piperazine-1-carbonyl)-3-o-tolyl-2,3-dihydro-1H-imidazol-1-yl)ethyl)benzamide]",500 to 1000
12,"CCCC(=O)Nc1ccccc1-n1c(-c2ccccc2)c(C(=O)N2CCNC[C@H]2Cc2ccccc2)[nH]c1=O [Example 121, (R)—N-(2-(4-(2-Benzylpiperazine-1-carbonyl)-2-oxo-5-phenyl-2,3-dihydro-1H-imidazol-1-yl)phenyl)butyramide]",100 to 500
13,"O=C(c1[nH]c(=O)n([C@H]2CCCC[C@@H]2O)c1-c1ccccc1)N1CCNC[C@H]1Cc1ccccc1 [Example 126, 4-((R)-2-Benzylpiperazine-1-carbonyl)-1-((1S,2S)-2-hydroxycyclohexyl)-5-phenyl-1H-imidazol-2(3H)-one]",< 100
14,"CC(=O)N1CCCC(n2c(-c3ccccc3)c(C(=O)N3CCNC[C@H]3Cc3ccccc3)[nH]c2=O)C1 (stereo partly drawn) [Example 104, 1-(1-Acetylpiperidin-3-yl)-4-((R)-2-benzylpiperazine-1-carbonyl)-5-phenyl-1H-imidazol-2(3H)-one]",500 to 1000
15,"COc1ccccc1-n1c(-c2ccccc2)c(C(=O)N2CCNC[C@H]2Cc2ccccc2)[nH]c1=O [Example 113, (R)-4-(2-Benzylpiperazine-1-carbonyl)-1-(2-methoxyphenyl)-5-phenyl-1H-imidazol-2(3H)-one]",< 100
